Source: ChEMBL document CHEMBL3885861, “Open TG-GATES”

Organism: Rattus norvegicus
Test: Open TG-GATES - Regimen: Single
Assay type: toxicity, organism-based, Sprague-Dawley
Design: regimen Single, gender Male, age 6 weeks
Conditions: in vivo, iv, 10 mg/kg, route intravenous injection, dose level High; for KIDNEY_L / KIDNEY_R / KIDNEY_TOTAL: tissue Kidney; for LIVER: tissue Liver; for ALP / ALT / AST / CRE / DBIL / GLC / K / LDH / Na / RALB / TBIL / TC / TG / TP / gamma-GTP: tissue Plasma

COc1cccc2c1C(=O)c1c(O)c3c(c(O)c1C2=O)C[C@@](O)(C(=O)CO)C[C@@H]3O[C@H]1C[C@H](N)[C@H](O)[C@H](C)O1 [DOXORUBICIN]
Eos (3 h, tissue Blood): 0.6% | Fbg (3 h, tissue Blood): 275.8 mg/dL | Ht (3 h, tissue Blood): 37.5% | Lym (3 h, tissue Blood): 60.4% | MCH (3 h, tissue Blood): 21.8 pg | MCHC (3 h, tissue Blood): 34.9% | MCV (3 h, tissue Blood): 62.3 fL | Mono (3 h, tissue Blood): 8.8% | Neu (3 h, tissue Blood): 27.4% | PT (3 h, tissue Blood): 16.5 s | Plat (3 h, tissue Blood): 121.7 x10_4/uL | RBC (3 h, tissue Blood): 603 x10_4/ul | Ret (3 h, tissue Blood): 6.2% | KIDNEY_L (3 h): 0.9 g | KIDNEY_R (3 h): 0.9 g | KIDNEY_TOTAL (3 h): 1.9 g | LIVER (3 h): 9.3 g | ALP (3 h): 1462.4 IU/L | ALT (3 h): 43 IU/L | AST (3 h): 86.6 IU/L | CRE (3 h): 0.1 mg/dL | DBIL (3 h): 0 mg/dL | GLC (3 h): 171.4 mg/dL | K (3 h): 4.6 meq/L | LDH (3 h): 187.2 IU/L | Na (3 h): 141.4 meq/L | RALB (3 h): 2.9 g/dL | TBIL (3 h): 0.008 mg/dL | TC (3 h): 75.4 mg/dL | TG (3 h): 140 mg/dL | TP (3 h): 5.1 g/dL | gamma-GTP (3 h): 1.6 IU/L | TERMINAL_BW (6 h): 205.6 g | Bas (6 h, tissue Blood): 0% | Eos (6 h, tissue Blood): 0.2% | Fbg (6 h, tissue Blood): 275.8 mg/dL | Ht (6 h, tissue Blood): 38% | Lym (6 h, tissue Blood): 64% | MCH (6 h, tissue Blood): 21.6 pg | MCHC (6 h, tissue Blood): 34% | MCV (6 h, tissue Blood): 63.4 fL | Mono (6 h, tissue Blood): 6.4% | Neu (6 h, tissue Blood): 26.4% | PT (6 h, tissue Blood): 16.2 s | Plat (6 h, tissue Blood): 118.6 x10_4/uL | RBC (6 h, tissue Blood): 599 x10_4/ul | Ret (6 h, tissue Blood): 6.9% | KIDNEY_L (6 h): 0.9 g | KIDNEY_R (6 h): 0.9 g | KIDNEY_TOTAL (6 h): 1.8 g | LIVER (6 h): 8.7 g | ALP (6 h): 1468.4 IU/L | AST (6 h): 86.4 IU/L | CRE (6 h): 0.2 mg/dL | DBIL (6 h): 0 mg/dL | GLC (6 h): 190.8 mg/dL | K (6 h): 4 meq/L | LDH (6 h): 180 IU/L | Na (6 h): 141 meq/L | RALB (6 h): 2.9 g/dL | TBIL (6 h): 0.036 mg/dL | TC (6 h): 69.4 mg/dL | TG (6 h): 54.4 mg/dL | TP (6 h): 5.1 g/dL | gamma-GTP (6 h): 1.6 IU/L | TERMINAL_BW (9 h): 206.9 g | Bas (9 h, tissue Blood): 0% | Eos (9 h, tissue Blood): 0.4% | Fbg (9 h, tissue Blood): 279.2 mg/dL | Hb (9 h, tissue Blood): 13 g/dL | Ht (9 h, tissue Blood): 38.2% | Lym (9 h, tissue Blood): 56.2% | MCH (9 h, tissue Blood): 21.3 pg | MCHC (9 h, tissue Blood): 34.1% | MCV (9 h, tissue Blood): 62.5 fL | Mono (9 h, tissue Blood): 5.6% | Neu (9 h, tissue Blood): 35.4% | PT (9 h, tissue Blood): 15.9 s | Plat (9 h, tissue Blood): 118.9 x10_4/uL | RBC (9 h, tissue Blood): 611.6 x10_4/ul | Ret (9 h, tissue Blood): 6.1% | KIDNEY_L (9 h): 0.9 g | KIDNEY_R (9 h): 0.9 g | KIDNEY_TOTAL (9 h): 1.9 g | LIVER (9 h): 8.2 g | ALP (9 h): 1273.6 IU/L | AST (9 h): 84.2 IU/L | CRE (9 h): 0.1 mg/dL | DBIL (9 h): 0.002 mg/dL | GLC (9 h): 186.2 mg/dL | K (9 h): 4.1 meq/L | Na (9 h): 139.6 meq/L | RALB (9 h): 3 g/dL | TBIL (9 h): 0.036 mg/dL | TC (9 h): 68.4 mg/dL | TG (9 h): 56.8 mg/dL | TP (9 h): 5.2 g/dL | gamma-GTP (9 h): 1.2 IU/L | TERMINAL_BW (24 h): 206.3 g | Bas (24 h, tissue Blood): 0% | Eos (24 h, tissue Blood): 0.8% | Fbg (24 h, tissue Blood): 323 mg/dL | Ht (24 h, tissue Blood): 37.9% | Lym (24 h, tissue Blood): 74.2% | MCH (24 h, tissue Blood): 22.1 pg | MCHC (24 h, tissue Blood): 35.9% | MCV (24 h, tissue Blood): 61.6 fL | Mono (24 h, tissue Blood): 3% | Neu (24 h, tissue Blood): 20.8% | PT (24 h, tissue Blood): 15.9 s | Plat (24 h, tissue Blood): 131.1 x10_4/uL | RBC (24 h, tissue Blood): 615.6 x10_4/ul | Ret (24 h, tissue Blood): 3.2% | KIDNEY_L (24 h): 0.9 g | KIDNEY_R (24 h): 0.9 g | KIDNEY_TOTAL (24 h): 1.8 g | LIVER (24 h): 9.1 g | ALP (24 h): 1298.4 IU/L | ALT (24 h): 28 IU/L | CRE (24 h): 0.2 mg/dL | DBIL (24 h): 0 mg/dL | GLC (24 h): 208.8 mg/dL | K (24 h): 4.9 meq/L | LDH (24 h): 129.2 IU/L | Na (24 h): 141.2 meq/L | RALB (24 h): 2.9 g/dL | TBIL (24 h): 0.014 mg/dL | TC (24 h): 82.4 mg/dL | TG (24 h): 60 mg/dL | TP (24 h): 5.2 g/dL | gamma-GTP (24 h): 1.4 IU/L
